Assay results published in ChEMBL document CHEMBL5375954, “Discovery and Evaluation of C6-Substituted Pyrazolopyrimidine-Based Bisphosphonate Inhibitors of the Human Geranylgeranyl Pyrophosphate Synthase and Evaluation of Their Antitumor Efficacy in Multiple Myeloma, Pancreatic Ductal Adenocarcinoma, and Colorectal Cancer” (J Med Chem, 2023).
pEC50, pIC50: −log10 of the molar value. Calls of active or inactive are those of the source. The calls are words filed in the database; no cut-off is given here.

Key:
HCT-116 [1] = assay: Induction of apoptosis in human HCT-116 cells at 1 uM incubated for 72 hrs by APC-Annexin-V/7-AAD staining based flow cytometry relative to control; type: functional
[2] = molecular target: T1, Geranylgeranyl pyrophosphate synthase (Homo sapiens, UniProt O95749); assay: Inhibition of N-terminal His6 tagged human GGPPS expressed in Escherichia coli BL21(DE3) cells in presence of FPP and [14C]IPP by scintillation counting analysis
T1 sequence (O95749 whole entry): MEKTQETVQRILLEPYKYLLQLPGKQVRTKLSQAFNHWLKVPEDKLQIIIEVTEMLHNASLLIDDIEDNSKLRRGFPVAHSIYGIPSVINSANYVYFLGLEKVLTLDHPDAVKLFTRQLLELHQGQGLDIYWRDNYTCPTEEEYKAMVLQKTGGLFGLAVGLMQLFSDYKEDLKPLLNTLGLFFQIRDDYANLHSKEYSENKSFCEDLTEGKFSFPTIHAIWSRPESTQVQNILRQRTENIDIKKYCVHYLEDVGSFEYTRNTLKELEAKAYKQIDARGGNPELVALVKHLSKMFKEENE

[3] = Hepatotoxicity in female NSG mouse xenografted with human RPMI-8226 cells assessed as prominent nucleoli at 3 mg/kg, ip administered 3 times a week for 26 days and measured 48 hrs post last dose by H and E staining based assay; type: toxicity, organism-based; settings: in vivo, 672 h, time 28 day
[4] = Metabolic stability in Beagle dog liver microsomes assessed as compound remaining incubated for 45 mins in presence of NADPH by LC-MS/MS analysis; type: ADME, Canis lupus familiaris, Microsome; settings: 0.75 h
HCT-116 [5] = assay: Induction of apoptosis in human HCT-116 cells assessed as early apoptotic cells at 1 uM incubated for 72 hrs in presence of geranylgeraniol by APC-Annexin-V/7-AAD staining based flow cytometry (reference value: 1.16%); type: functional
[6] = Hepatotoxicity in female NSG mouse xenografted with human RPMI-8226 cells assessed as foci of bile ductular/oval cell proliferation at 3 mg/kg, ip administered 3 times a week for 26 days and measured 48 hrs post last dose by H and E staining based assay; type: toxicity, organism-based, Bile duct; settings: in vivo, 672 h, time 28 day
HCT-116 [7] = assay: Induction of apoptosis in human HCT-116 cells assessed as early apoptotic cells at 1 uM incubated for 72 hrs by APC-Annexin-V/7-AAD staining based flow cytometry (reference value: 1.16%); type: functional
[8] = Cytotoxicity against human IMR-90 cells assessed as inhibition of cell growth at 360 nM incubated for 72 hrs by MTS assay relative to control; type: toxicity, cell-based
MIA PaCa-2 [9] = assay: Induction of apoptosis in human MIA PaCa-2 cells assessed as live cells at 1 uM incubated for 72 hrs by APC-Annexin-V/7-AAD staining based flow cytometry (reference value: 97.7%); type: functional
JJN-3 = assay: Antiproliferative activity against human JJN-3 cells harboring wild type KRAS at 0.1 to 10000 nM incubated for 72 hrs by MTS assay; type: functional, cell-based; settings: dose 0.1-10000 nM
RPMI-8226 [10] = assay: cells; settings: Homo sapiens, RPMI-8226, 72 h
[11] = Toxicity in NSG mouse xenografted with human MIA PaCa-2 cells assessed as signs of distress at 3 mg/kg, ip administered 3 times a week for 26 days and measured daily; type: organism-based; settings: in vivo, time 26 day
KMS-12-PE = assay: Antiproliferative activity against human KMS-12-PE cells harboring wild type KRAS at 0.1 to 10000 nM incubated for 72 hrs by MTS assay; type: functional, cell-based; settings: dose 0.1-10000 nM
HCT-116 [12] = assay: Induction of apoptosis in human HCT-116 cells assessed as necrotic cells at 1 uM incubated for 72 hrs by APC-Annexin-V/7-AAD staining based flow cytometry (reference value: 2.99%); type: functional
[13] = Hepatotoxicity in male NSG mouse xenografted with human RPMI-8226 cells assessed as eosinophilic degeneration at 3 mg/kg, ip administered 3 times a week for 26 days and measured 48 hrs post last dose by H and E staining based assay; type: toxicity, organism-based; settings: in vivo, 672 h, time 28 day
[14] = Hepatotoxicity in female NSG mouse xenografted with human RPMI-8226 cells assessed as eosinophilic degeneration at 3 mg/kg, ip administered 3 times a week for 26 days and measured 48 hrs post last dose by H and E staining based assay; type: toxicity, organism-based; settings: in vivo, 672 h, time 28 day
[15] = Hepatotoxicity in male NSG mouse xenografted with human RPMI-8226 cells assessed as vasculitis or perivasculitis at 3 mg/kg, ip administered 3 times a week for 26 days and measured 48 hrs post last dose by H and E staining based assay; type: toxicity, organism-based; settings: in vivo, 672 h, time 28 day
HCT-116 [16] = assay: Induction of apoptosis in human HCT-116 cells assessed as late apoptotic cells at 1 uM incubated for 72 hrs by APC-Annexin-V/7-AAD staining based flow cytometry (reference value: 0%); type: functional
[17] = Hepatotoxicity in male NSG mouse xenografted with human RPMI-8226 cells assessed as single-cell necrosis at 3 mg/kg, ip administered 3 times a week for 26 days and measured 48 hrs post last dose by H and E staining based assay; type: toxicity, organism-based; settings: in vivo, 672 h, time 28 day
MIA PaCa-2 [18] = assay: Induction of apoptosis in human MIA PaCa-2 cells at 1 uM incubated for 72 hrs by APC-Annexin-V/7-AAD staining based flow cytometry relative to control; type: functional
[19] = Metabolic stability in Beagle dog liver microsomes assessed as compound remaining incubated for 45 mins in absence of NADPH by LC-MS/MS analysis; type: ADME, Canis lupus familiaris, Microsome; settings: 0.75 h
RPMI-8226 [20] = assay: Antitumor activity against human RPMI-8226 cells xenografted in NSG mouse assessed as reduction in tumor volume at 3 mg/kg, ip administered 3 times a week for 26 days; type: functional, organism-based; settings: time 26.0 day
MIA PaCa-2 [21] = assay: Induction of apoptosis in human MIA PaCa-2 cells assessed as necrotic cells at 1 uM incubated for 72 hrs by APC-Annexin-V/7-AAD staining based flow cytometry (reference value: 0.75%); type: functional
[22] = Hepatotoxicity in male NSG mouse xenografted with human RPMI-8226 cells assessed as prominent nucleoli at 3 mg/kg, ip administered 3 times a week for 26 days and measured 48 hrs post last dose by H and E staining based assay; type: toxicity, organism-based; settings: in vivo, 672 h, time 28 day
[23] = molecular target: T2, Ras-related protein Rap-1A (Homo sapiens) (UniProt P62834); assay: Inhibition of RAP-1A prenylation in human MIA PaCa-2 cells incubated for 48 hrs by Western blot analysis; type: cell-based; settings: dose 10-1000 nM
T2 sequence (whole entry): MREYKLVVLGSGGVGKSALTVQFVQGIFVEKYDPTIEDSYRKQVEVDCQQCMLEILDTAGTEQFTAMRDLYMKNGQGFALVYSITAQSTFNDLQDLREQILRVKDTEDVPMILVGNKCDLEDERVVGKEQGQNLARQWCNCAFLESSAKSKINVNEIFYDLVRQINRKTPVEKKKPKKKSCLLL

[24] = Hepatotoxicity in male NSG mouse xenografted with human RPMI-8226 cells assessed as foci of bile ductular/oval cell proliferation at 3 mg/kg, ip administered 3 times a week for 26 days and measured 48 hrs post last dose by H and E staining based assay; type: toxicity, organism-based, Bile duct; settings: in vivo, 672 h, time 28 day
MIA PaCa-2 [25] = assay: Antitumor activity against human MIA PaCa-2 cells xenografted in NSG mouse assessed as difference in tumor volume at 3 mg/kg, ip administered 3 times a week for 26 days and measured 48 hrs post last dose; type: functional, organism-based; settings: time 28.0 day

For `Cn1ncc2c(NC(P(=O)(O)O)P(=O)(O)O)nc(-c3cccc(C(=O)Nc4ccc(C(F)(F)F)cc4)c3)nc21`, the Activity (HCT-116 [1]) was roughly 50%, the pIC50 [2] was 7.92 and the Activity [3] was “Non-Toxic”. For the same compound, the Stability [4] was 87.7%, the Activity (HCT-116 [5]) was 1.54% and the Activity [6] was “Non-Toxic”. For the same compound, the Activity (HCT-116 [7]) was 20.7%, the inhibition at 72 h, 0.36 µM [8] was 0% and the Activity (MIA PaCa-2 [9]) was 32.1%. For the same compound, the Activity (JJN-3) was “Active”, the pEC50 (RPMI-8226 [10]) was 7.15 and the Activity [11] was “Non-Toxic”. For the same compound, the Activity (KMS-12-PE) was “Active”, the Activity (HCT-116 [12]) was 4.6% and the Activity [13] was “Non-Toxic”. The Activity [14] was “Non-Toxic”, the Activity [15] was “Non-Toxic” and the Activity (HCT-116 [16]) was 18%. The Activity [17] was “Non-Toxic”, the Activity (MIA PaCa-2 [18]) was roughly 50% and the Stability [19] was 81.7%. For the same compound, the Activity (RPMI-8226 [20]) was “Active”, the Activity (MIA PaCa-2 [21]) was 13.4% and the Activity [22] was “Non-Toxic”. The inhibition [23] was “Dose-Dependent Effect”, the Activity [24] was “Non-Toxic” and the Activity (MIA PaCa-2 [25]) was “Active”.
